From publication PMC12150604, “Exploring structure–activity relationships of pyrrolyl diketo acid derivatives as non-nucleoside inhibitors of terminal deoxynucleotidyl transferase enzyme” (Journal of Enzyme Inhibition and Medicinal Chemistry, 2025)
Where “and” joins values, the source holds several entries; their conditions need not be identical. Identical values can stand only once. Like-named read-outs stand apart in the source and are kept apart here.

Molecular target: T1, human TdT (Homo sapiens, UniProt P04053)
T1 construct: purchased Trevigen (Gaithersburg, MD)
Test: Terminal transferase assay, TdT
Type: biochemical
Settings: for IC50: human TdT
Protocol: Recombinant full-length human DNA polymerase λ and β were generated and purified as described. After purification, the protein was >90% homogeneous, as judged by sodium dodecyl sulphate (SDS)−polyacrylamide gel electrophoresis (PAGE) and Coomassie staining. TdT was from Trevigen (Gaithersburg, MD).
Terminal Transferase Assay. DNA polymerase λ and TdT terminal transferase activities were assayed in a final volume of 25 μL containing 50 mM Tris-HCl (pH 7.0), 0.25 mg/mL BSA, 1 mM DTT, 0.2 μM ss 30mer (AAC)10 DNA oligonucleotide, 25 μM [3H]dNTPs (10 Ci/mmol) and 0.5 mM MnCl2 or 5 mM MgCl2 used as cofactors. Terminal transferase activity was monitored in the presence of 10% DMSO or in the presence of increasing amounts of inhibitors dissolved in DMSO. All reactions were incubated for 10 min at 37 °C and the DNA precipitated with 10% trichloroacetic acid. Insoluble radioactive material was determined by scintillation counting using Trilux beta-counter (PerkinElmer) as described.
Dose − response curves were generated by computer fitting of the data to the equation E(%) = Emax/(1 + I/ID50) where E(%) is the fraction of enzyme’s activity measured in the presence of the inhibitor, Emax is the activity in the absence of the inhibitor, I is the inhibitor concentration, and ID50 is the inhibitor concentration at which E(%) = 0.5 Emax. ID50 values were generated using GraphPad Prism 6.

[1] = Mg2+ as cofactor, read-out: ID50 (µM) Mg2+
[2] = Mn2+ as cofactor, read-out: ID50 (µM) Mn2+

T1 sequence (P04053 whole entry): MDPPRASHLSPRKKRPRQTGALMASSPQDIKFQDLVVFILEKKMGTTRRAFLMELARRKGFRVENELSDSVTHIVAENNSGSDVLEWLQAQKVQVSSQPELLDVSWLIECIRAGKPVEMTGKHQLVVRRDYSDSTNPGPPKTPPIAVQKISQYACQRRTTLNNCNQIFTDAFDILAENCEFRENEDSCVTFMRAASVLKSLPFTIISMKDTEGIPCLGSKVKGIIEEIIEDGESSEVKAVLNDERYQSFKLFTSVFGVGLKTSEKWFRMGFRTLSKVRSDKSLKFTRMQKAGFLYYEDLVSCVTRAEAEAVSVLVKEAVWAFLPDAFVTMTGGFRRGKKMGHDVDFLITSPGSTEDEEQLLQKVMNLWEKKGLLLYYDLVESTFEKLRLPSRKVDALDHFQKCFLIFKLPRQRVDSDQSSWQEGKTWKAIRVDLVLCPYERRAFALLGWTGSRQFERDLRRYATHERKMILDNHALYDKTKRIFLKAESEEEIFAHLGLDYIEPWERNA

Row | Molecule | IC50 [1] | IC50 [2] | further results
1 | CCOC(=O)/C(O)=C/C(=O)/C=C/c1c[nH]cc1-c1ccccc1 [Compound 7c] | 10.5 ± 3.6 µM | > 50 µM | –
2 | CCOC(=O)/C(O)=C/C(=O)/C=C/c1ccn(Cc2ccc(F)cc2)c1 [Compound 7a, Ethyl (2Z,5E)-6-(1-(4-fluorobenzyl)-1H-pyrrol-3-yl)-2-hydroxy-4-oxohexa-2,5-dienoate] | – | > 50 µM | –
3 | CCOC(=O)/C(O)=C/C(=O)/C=C/c1cc(C(=O)c2ccccc2)cn1Cc1cccc2ccccc12 [Compound 5j] | 3.68 ± 1 µM | > 50 µM | –
4 | CCOC(=O)/C(O)=C/C(=O)/C=C/c1cc(-c2ccccc2)cn1Cc1ccc(F)cc1 [Compound 5b, Ethyl (2Z,5E)-6-(1-(4-fluorobenzyl)-4-phenyl-1H-pyrrol-2-yl)-2-hydroxy-4-oxohexa-2,5-dienoate] | – | > 50 µM | –
5 | O=C(/C=C(\O)C(=O)O)/C=C/c1cc(C(=O)c2ccccc2)c[nH]1 [Compound 6l, (2Z,5E)-6-(4-benzoyl-1H-pyrrol-2-yl)-2-hydroxy-4-oxohexa-2,5-dienoic acid] | 0.22 ± 0.01 µM | 0.3 ± 0.13 µM | –
6 | CCOC(=O)/C(O)=C/C(=O)/C=C/c1cc(C(=O)c2ccccc2)cn1S(=O)(=O)c1ccc(F)cc1 [Compound 5m] | 3.87 ± 0.55 µM | 8.75 ± 0.35 µM | –
7 | CCOC(=O)/C(O)=C/C(=O)/C=C/c1c[nH]cc1-c1cc(OC)c(OC)c(OC)c1 [Compound 7d] | 21.3 ± 5.05 µM | > 50 µM | –
8 | (E)-6-(1-(4-fluorobenzyl)-4-(4-phenoxybenzoyl)-1H-pyrrol-2-yl)-2,4-dioxohex-5-enoic acid [Compound 6e] | – | >50 µM | –
9 | CCOC(=O)/C(O)=C/C(=O)/C=C/c1cc(C(=O)c2ccc3c(c2)OCCO3)cn1Cc1ccc(F)cc1 [Compound 5c] | – | > 50 µM | –
10 | CCOC(=O)/C(O)=C/C(=O)/C=C/c1cccn1Cc1ccc(F)cc1 [Compound 5a, Ethyl (2Z,5E)-6-(1-(4-fluorobenzyl)-1H-pyrrol-2-yl)-2-hydroxy-4-oxohexa-2,5-dienoate] | – | > 50 µM | –
11 | COc1cc(C(=O)c2c[nH]c(/C=C/C(=O)/C=C(\O)C(=O)O)c2)cc(OC)c1OC [Compound 6k] | 0.86 ± 0.14 µM | 0.38 ± 0.06 µM | –
12 | CCOC(=O)/C(O)=C/C(=O)/C=C/c1cc(C(=O)c2ccc(OCc3ccc4ccccc4c3)cc2)cn1Cc1ccc(F)cc1 [Compound 5d] | 5.83 ± 1.76 µM | > 50 µM | –
13 | CCOC(=O)/C(O)=C/C(=O)/C=C/c1cc(C(=O)c2ccccc2)c[nH]1 [Compound 5l, (2Z,5E)-ethyl 6-(4-benzoyl-1H-pyrrol-2-yl)-2-hydroxy-4-oxohexa-2,5-dienoate] | 37.8 µM and 35.8 µM | > 50 µM | –
14 | O=C(/C=C(\O)C(=O)O)/C=C/c1cc(-c2ccccc2)cn1Cc1ccc(F)cc1 [Compound 6b, (2Z,5E)-6-(1-(4-fluorobenzyl)-4-phenyl-1H-pyrrol-2-yl)-2-hydroxy-4-oxohexa-2,5-dienoic acid] | > 50 µM | 6.9 ± 2.5 µM | –
15 | O=C(/C=C(\O)C(=O)O)/C=C/c1cc(C(=O)c2ccccc2)cn1Cc1cccc2ccccc12 [Compound 6j] | 2.11 ± 0.5 µM | > 50 µM | –
16 | O=C(/C=C(\O)C(=O)O)/C=C/c1cc(C(=O)c2ccccc2)cn1S(=O)(=O)c1ccc(F)cc1 [Compound 6m] | 0.34 ± 0.01 µM | 0.33 ± 0.05 µM | –
17 | COc1ccc(C(=O)Nc2ccc(C(=O)c3cc(/C=C/C(=O)/C=C(\O)C(=O)O)n(Cc4ccc(F)cc4)c3)cc2)cc1Br [Compound 6g] | 0.41 ± 0.03 µM | > 50 µM | –
18 | O=C(/C=C/c1cc(C(=O)c2ccc([N+](=O)[O-])cc2)cn1Cc1ccc(F)cc1)/C=C(/O)C(=O)O [Compound 6f] | 0.64 ± 0.25 µM | 7.71 ± 2.4 µM | –
19 | CCOC(=O)/C(O)=C\C(=O)/C=C/c1cc(C(=O)c2ccc([N+](=O)[O-])cc2)cn1Cc1ccc(F)cc1 [Compound 5f] | 6.54 ± 0.78 µM | > 50 µM | –
20 | O=C(/C=C(\O)C(=O)O)/C=C/c1cc(C(=O)c2ccc3c(c2)OCCO3)cn1Cc1ccc(F)cc1 [Compound 6c] | – | 4.07 ± 0.81 µM | –
21 | CCOC(=O)/C(O)=C/C(=O)/C=C/c1cc(C(=O)c2ccc(NC(=O)c3ccc(OC)c(Br)c3)cc2)cn1Cc1ccc(F)cc1 [Compound 5g] | 0.91 ± 0.36 µM | > 50 µM | –
22 | O=C(/C=C(\O)C(=O)O)/C=C/c1cccn1Cc1ccc(F)cc1 [Compound 6a, (2Z,5E)-6-(1-(4-fluorobenzyl)-1H-pyrrol-2-yl)-2-hydroxy-4-oxohexa-2,5-dienoic acid] | > 50 µM | 1.63 ± 0.35 µM | times higher activity than 4-phenyl counterpart 6b (TdT, Mn2+, ratio of ID50): 4 times; times more active than the hit compound 2 (TdT, Mn2+, ratio of ID50): about 6 times
23 | O=C(/C=C(\O)C(=O)O)/C=C/c1cc(C(=O)c2ccc(OCc3ccc4ccccc4c3)cc2)cn1Cc1ccc(F)cc1 [Compound 6d] | 12.8 ± 4.2 µM | > 50 µM | –
24 | CCOC(=O)/C(O)=C/C(=O)/C=C/c1cn(Cc2ccc(F)cc2)cc1-c1ccccc1 [Compound 7b, Ethyl (2Z,5E)-6-(1-(4-fluorobenzyl)-4-phenyl-1H-pyrrol-3-yl)-2-hydroxy-4-oxohexa-2,5-dienoate] | – | 2.72 ± 0.73 µM | –
25 | CCOC(=O)/C(O)=C/C(=O)/C=C/c1cc(C(=O)c2cc(OC)c(OC)c(OC)c2)c[nH]1 [Compound 5k] | 10.6 ± 3.6 µM | 1.28 ± 0.27 µM | times lower potency than acid counterpart 6k (TdT, Mn2+, ratio of ID50): 3 times

Now from value to molecule, other results behind:

Row | IC50 [1] | IC50 [2] | Molecule | further results
26 | – | 0.66 ± 0.12 µM | O=C(/C=C(\O)C(=O)O)/C=C/c1cn(Cc2ccc(F)cc2)cc1-c1ccccc1 [Compound 8b, (2Z,5E)-6-(1-(4-fluorobenzyl)-4-phenyl-1H-pyrrol-3-yl)-2-hydroxy-4-oxohexa-2,5-dienoic acid] | –
27 | – | 1.16 ± 0.35 µM | O=C(O)/C(O)=C/C(=O)c1cccn1Cc1ccc(F)cc1 [Compound 10a, (Z)-4-(1-(4-fluorobenzyl)-1H-pyrrol-2-yl)-2-hydroxy-4-oxobut-2-enoic acid] | –
28 | – | 2.8 ± 0.7 µM | O=C(O)/C(O)=C/C(=O)c1ccn(Cc2ccc(F)cc2)c1 [Compound 12a, (Z)-4-(1-(4-fluorobenzyl)-1H-pyrrol-3-yl)-2-hydroxy-4-oxobut-2-enoic acid] | –
29 | 0.24 ± 0.03 µM | 0.23 ± 0.03 µM | COc1cc(-c2c[nH]cc2/C=C/C(=O)/C=C(\O)C(=O)O)cc(OC)c1OC [Compound 8d] | –
30 | – | 0.19 ± 0.08 µM | O=C(/C=C(\O)C(=O)O)/C=C/c1c[nH]cc1-c1ccccc1 [Compound 8c] | improvement in inhibitory activity in respect to hit compound 4 (TdT): higher than 3 times
31 | – | > 50 µM | CCOC(=O)/C(O)=C/C(=O)c1cccn1Cc1ccc(F)cc1 [Compound 9a, Ethyl (Z)-4-(1-(4-fluorobenzyl)-1H-pyrrol-2-yl)-2-hydroxy-4-oxobut-2-enoate] | –
32 | – | > 50 µM | CCOC(=O)/C(O)=C/C(=O)c1ccn(Cc2ccc(F)cc2)c1 [Compound 11a, Ethyl (Z)-4-(1-(4-fluorobenzyl)-1H-pyrrol-3-yl)-2-hydroxy-4-oxobut-2-enoate] | –
33 | – | 3.25 ± 0.66 µM | O=C(O)/C(O)=C/C(=O)c1cc(-c2ccccc2)cn1Cc1ccc(F)cc1 [Compound 10b, (Z)-4-(1-(4-fluorobenzyl)-4-phenyl-1H-pyrrol-2-yl)-2-hydroxy-4-oxobut-2-enoic acid] | –
34 | – | > 50 µM | CCOC(=O)/C(O)=C/C(=O)c1cc(-c2ccccc2)cn1Cc1ccc(F)cc1 [Compound 9b, Ethyl (Z)-4-(1-(4-fluorobenzyl)-4-phenyl-1H-pyrrol-2-yl)-2-hydroxy-4-oxobut-2-enoate] | –
35 | – | 6.31 ± 2.8 µM | O=C(/C=C(\O)C(=O)O)/C=C/c1ccn(Cc2ccc(F)cc2)c1 [Compound 8a, (2Z,5E)-6-(1-(4-fluorobenzyl)-1H-pyrrol-3-yl)-2-hydroxy-4-oxohexa-2,5-dienoic acid] | –
